Assay results published in US11708562B2, “Differentiation of human embryonic stem cells” (Janssen Biotech, Inc., priority 2006, dated 2023).
Where “and” joins values, the source holds several entries; their conditions need not be identical. Equal values may be shown once.

How the values were obtained:
[1] = tested on: H9 embryonic stem cells; test: Immunofluorescence staining of DE markers +/- Wnt-3a; format: cell-based, human
Description: Day 5 DE cultures of H9 cells were stained according to Example 10 for SOX-17, HNF-3B, GATA-4, N-cadherin, and E-cadherin. All nuclei were counter stained with DAPI.

[2] = tested on: human embryonic stem cell line H9; test: Cytokine array of cell lysates and conditioned media +/- Wnt3a (Table VII); format: cell-based; set-up: unit not given here; conditions: 100 ng/ml Activin A + 10 ng/ml Wnt3a
Protocol: The effect that Wnt-3a treatment has on cytokine expression was analyzed using a protein array. Cells of the human embryonic stem cell line H9 were cultured according to the methods described in Example 15. […] Cell lysates were prepared from cells of each treatment group, with a mammalian cell lysis kit (Sigma-Aldrich, MO). Conditioned media from each treatment group was collected and concentrated. Cytokine array analysis was completed using Cytokine Array panels provided by RayBiotech, GA (http://www.raybiotech.com/). Table VII lists cytokine, growth factor, and receptor expression following normalization of the data and background subtraction. For each panel, positive and negative controls are also included.

[3] = tested on: SA002 P38 cells; test: Differentiation of SA002 ES line on […] to definitive endoderm; format: cell-based, human; conditions: 20 ng/ml Wnt-3a
Description: Expression of CXCR4 is depicted in FIGS. 45A, 45B and 45C: a) AA treatment b) AA+Wnt-3a c) AA+GSK-3B inhibitor.

[4] = tested on: H9P46-P48 embryonic stem cells; test: Definitive endoderm on […]: effect of GSK-3B inhibitor (FACS CXCR4, PCR); format: cell-based, human; conditions: 20 ng/ml of Wnt-3a or 100-1000 nM GSK-3B inhibitor
Protocol: In order to confirm that the effect of Wnt-3a was through the Wnt pathway, a GSK-3 inhibitor was used to activate the downstream targets of Wnt, such as beta catenin. […] FIG. 29A depicts the expression of CXCR4 by FACS at day 5 in the absence of Wnt-3a or GSK-3B inhibitor, b)+20 ng/ml Wnt-3a, c)+1000 nM GSK-3B inhibitor IX, d)+500 nM GSK-3B inhibitor IX, e)+100 nM GSK-3B inhibitor IX, f)+10 nM GSK-3B inhibitor IX, g)+100 nM GSK-3B inhibitor IX for days 1-2, and h)+10 nM GSK-3B inhibitor IX for days 1-2.

[5] = tested on: H9P46 embryonic stem cells; test: Definitive endoderm on […]: effective dose of Wnt-3a (FACS, PCR, cell number); format: cell-based, human
Protocol: Control cultures were not treated with Wnt-3a. FIG. 27A depicts the expression of CXCR4 by FACS at day 5 in the absence of Wnt-3a, b) 10 ng/ml Wnt-3a, c) 20 ng/ml Wnt-3a and d) 50 ng/ml Wnt-3a. In the absence of Wnt-3a the expression of CXCR4 was very low. […] Real-time PCR results (FIG. 28A) also confirm this finding.
In a separate study, H9p52 cells were plated on 1:30 low growth factor […]™. For the first 2 days of the DE protocol a range of Wnt3A doses was used: 10 ng/ml, 5 ng/ml and 1 ng/ml. […] The number of cells at the end of the experiment is noted in FIG. 28C.

[6] = tested on: H9P44 cells; test: Definitive endoderm on MEFs with growth factor combinations: RT-PCR of definitive endoderm markers (Table V); format: cell-based, human; conditions: H9P44 on MEF
Protocol: H9P44 cells were plated onto 6 well plates previously coated with mitomycin treated mouse embryonic fibroblasts (MEF). Cells were grown until 70 to 80% confluency in ES cell medium consisting of DMEM/F12 (Invitrogen/GIBCO) supplemented with 20% knockout serum replacement, 100 nM MEM nonessential amino acids, 0.5 mM beta-mercaptoethanol, 2 mM L-glutamine (all from Invitrogen/GIBCO) and 8 ng/ml human basic fibroblast growth factor (bFGF) (R&D Systems).
Growth factors were added to increasing concentration of FBS in a stepwise manner as indicated in the following regimen:
All growth factors were purchased from R&D Systems, MN. A detailed description and concentration of growth factors for each treatment group is shown below. • 1. Control—No growth factor added • 2. […] IL-4 (10 ng/ml) • 10. SDF1a (20 ng/ml) • 11. […] BMP2 (100 ng/ml)+BMP-4 (100 ng/ml)+BMP-6 (100 ng/ml)+BMP-7 (100 ng/ml) • 13.
For RT-PCR analysis, cells were analyzed for expression of selected panel of definitive endoderm markers.

[7] = tested on: H9P53 embryonic stem cells; test: Definitive endoderm on […]: combination of Wnt-3a, GSK-3B inhibitor, BMP-4; format: cell-based, human; conditions: Wnt-3A plus GSK inhibitor in the presence of activin A
Description: Results are expressed as fold increase over untreated cells. […] Results are expressed as fold increase over untreated cells.

[8] = tested on: H7P44 and H9P46 embryonic stem cells; test: Definitive endoderm on […]: role of Wnt ligands (FACS CXCR4, real-time PCR); format: cell-based, human; conditions: H7 and H9; low serum+AA+/-Wnt ligands
Protocol: In some of the cultures 20 ng/ml Wnt-3a (Catalog #1324-WN-002, R&D Systems, MN), 20 ng/ml Wnt-5a (Catalog #654-WN-010, R&D Systems, MN), 25 ng/ml Wnt-7a (Catalog #3008-WN-025, R&D Systems, MN), or 25 ng/ml Wnt-5b (Catalog #3006-WN-025, R&D Systems, MN) was added throughout the five day treatment. FIGS. 24A and 24B depicts phase contrast images of H9P46 definitive endoderm culture in the presence of high concentration of (a) AA or (b) AA+20 ng/ml Wnt-3a. FIGS. 25A, 25B, 25C and 25D depicts the expression of CXCR4 by FACS at day 5 for H7P44, and H9P46 lines cultured on […]™ (1:30 dilution) and exposed to the DE protocol+Wnt-3a (FIGS. 25B and 25D) and -Wnt-3a (FIGS. 25A and C).

[9] = tested on: human embryonic stem cell line H1 at passage 55; test: Definitive endoderm on human serum coated plates (real-time PCR); format: cell-based
Protocol: Cultures of the human embryonic stem cell line H1 at passage 55 were grown and differentiated on human serum (Sigma, # H1388, MO) coated plates. 0.5 ml of human serum was added to each well of 6 well tissue culture treated dish, incubated for 1 hr at room temperature, and aspirated before adding human embryonic stem cells. […] These findings parallel our findings for human embryonic stem cells cultured on […]™ or human fibronectin coated plates.

[10] = tested on: human embryonic stem cell line H9; test: Cells from […] differentiated on MEFs: role of Wnt-3a (real-time PCR, FACS); format: cell-based
Protocol: Cells from the human embryonic stem cell line H9 cultured on […]™ for at least five passages were seeded onto MEF feeders in ES media.
At day 3 and 5, the cultures were analyzed by real time PCR for SOX-17, SOX-7, Alpha-fetal protein (AFP), CXCR4, Brychyury (Bry), gooscecoid (GSC), HNF-3 beta, GATA4, hTERT and Oct4. AFP and SOX-7 are regarded as visceral endoderm markers while GATA4, HNF-3beta and SOX-17 represent definite endoderm markers and GSC, Bry, and CXCR4 represent markers of primitive streak. hTERT and Oct-4 are markers for self renewal and pluripotency respectively. FACS analysis was also performed at day 3 and 5.

[11] = tested on: H9 cultures; test: Definitive endoderm on varying concentrations of […] with Wnt-3a (real-time PCR); format: cell-based, human; conditions: low serum, 100 ng/ml activin A and 20 ng/ml Wnt-3a
Protocol: H9 cells were cultured on plates coated with regular […] at a 1:60 to 1:10 dilution. The plates were coated with […] for 1 hr at room temperature.

[12] = tested on: H9P49 embryonic stem cells; test: Pancreatic endoderm under feeder-free conditions: evaluation of retinoic acid analogues (PCR); format: cell-based, human; conditions: 10 μM AM-580
Protocol: At day 5, cells were collected for evaluation by FACS and real-time PCR. […] The resulting definitive endoderm cells at day 5 were exposed to the following media conditions to induce pancreatic endoderm formation: culturing in DMEM/F12 media supplemented with 2% FBS and 1 μM all-trans retinoic acid (RA) (Catalog # R2625, Sigma, MO), or 0.1-10 μM AM-580 (4-[(5,6,7,8-Tetrahydro-5,5,8,8-tetramethyl-2-naphthalenyl)carboxamido]benzoic acid, Catalog # A8843, Sigma, MO), or 0.1-1 μM TTNPB (4-[(E)-2-(5,6,7,8-Tetrahydro-5,5,8,8-tetramethyl-2-naphthalenyl)-1-propenyl]benzoic acid Arotinoid acid, Catalog # T3757, Sigma, MO) for 3 days. AM-580 and TITNPB are retinoic acid analogs with affinity for retinoic acid receptors. RA treatment was followed by additional three day treatment in DMEM/F12 media supplemented with 2% FBS and 20-50 ng/ml bFGF (Catalog # F0291, Sigma, MO). Cultures were harvested and samples of mRNA were collected for analysis.

Row | Compound | nuclei stained positive for SOX-17, HNF-3beta and GATA-4 ([1]; 20 ng/ml Wnt-3a, day 5) | expression of e-cadherin ([1]; addition of Wnt-3a) | Axl expression ([2]; cell conditioned media) | IL-1beta expression ([2]; cell conditioned media) | IL-1ra expression ([2]; cell conditioned media) | Axl expression ([2]; cell lysate) | IL-1beta expression ([2]; cell lysate) | IL-1ra expression ([2]; cell lysate) | expression of DE markers [3] | number of CXCR4 positive cells (FACS) [4] | number of CXCR4 positive cells (FACS) ([5]; 10-50 ng/ml of Wnt-3a, day 5) | Wnt3a dose sufficient for optimal cell expansion and definitive endoderm differentiation ([5]; H9p52, for 2 days) | expression of CXCR4 (FACS) ([5]; absence versus 10 and 50 ng/ml Wnt-3a: 10 ng/ml compared with 50 ng/ml) | definitive endoderm markers on addition to high dose activin A in low serum [6] | definitive endoderm markers, combination versus each agent by itself [7] | expression of definitive endoderm markers (real-time PCR) [8] | expression of definitive endoderm markers compared to activin A only [9] | role in differentiation of cells cultured on MEFs to definitive endoderm [10] | expression of CXCR4, GATA4, Goosecoid, HNF-3beta, and SOX-17 genes [11] | expression of PDX-1 [12]
1 | Wnt-3a | significantly larger number | significant loss of expression | 610.40 and 748.34 | 316.59 and 278.30 | 354.23 and 581.75 | 88.59 and 139.03 | 352.05 and 312.08 | 302.68 and 198.48 | required addition of Wnt-3A for robust expression of DE markers | significantly increased | significantly increased | 10 ng/mL | as effective as | no significant upregulation | do not lead to significant upregulation | significant upregulation | Robust expression | does not appear to play a significant role | led to the expression | –
2 | CC1(C)CCC(C)(C)c2cc(C(=O)Nc3ccc(C(=O)O)cc3)ccc21 [AM-580, 4-[(5,6,7,8-Tetrahydro-5,5,8,8-tetramethyl-2-naphthalenyl)carboxamido]benzoic acid] | – | – | – | – | – | – | – | – | – | – | – | – | – | – | – | – | – | – | – | maintaining a high expression
